pIC50: −log10 of the molar value.
Tested on: 922993-354-T-J3-PDC complex spheroid viability
Experiment: Anticancer human tumor 922993-354-T-J3-PDC patient-derived endometrial carcinoma cell line growth inhibition [POLQ]
Details: for pIC50: curve of first compound; for viability, T/C: stronger effect = lower value; active means viability on the fitted dose curve at most 10% of control; inactive means the rest
Outline: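 PDC + HUVEC + MSC complex spheroids; POLQ inhibitors ± partner drugs; top conc. at/near clinical Cmax, else 10 microM (SN-38 1 microM), half-log dilutions; 37 degrees C, 5% CO2.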

[1] = second compound 0.0316 µM, first compound 0.0316 µM
[2] = second compound 0.0316 µM, first compound 0.1 µM
[3] = second compound 0.0316 µM, first compound 0.316 µM
[4] = second compound 0.0316 µM, first compound 1 µM
[5] = second compound 0.0316 µM, first compound 3.16 µM
[6] = second compound 0.0316 µM, first compound 10 µM
[7] = second compound 0.1 µM, first compound 0.0316 µM
[8] = second compound 0.1 µM, first compound 0.1 µM
[9] = second compound 0.1 µM, first compound 0.316 µM
[10] = second compound 0.1 µM, first compound 1 µM
[11] = second compound 0.1 µM, first compound 3.16 µM
[12] = second compound 0.1 µM, first compound 10 µM
[13] = second compound 0.316 µM, first compound 0.0316 µM
[14] = second compound 0.316 µM, first compound 0.1 µM
[15] = second compound 0.316 µM, first compound 0.316 µM
[16] = second compound 0.316 µM, first compound 1 µM
[17] = second compound 0.316 µM, first compound 3.16 µM
[18] = second compound 0.316 µM, first compound 10 µM
[19] = second compound 1 µM, first compound 0.0316 µM
[20] = second compound 1 µM, first compound 0.1 µM
[21] = second compound 1 µM, first compound 0.316 µM
[22] = second compound 1 µM, first compound 1 µM
[23] = second compound 1 µM, first compound 3.16 µM
[24] = second compound 1 µM, first compound 10 µM
[25] = second compound 3.16 µM, first compound 0.0316 µM
[26] = second compound 3.16 µM, first compound 0.1 µM
[27] = second compound 3.16 µM, first compound 0.316 µM
[28] = second compound 3.16 µM, first compound 1 µM
[29] = second compound 3.16 µM, first compound 3.16 µM
[30] = second compound 3.16 µM, first compound 10 µM
[31] = second compound 10 µM, first compound 0.0316 µM
[32] = second compound 10 µM, first compound 0.1 µM
[33] = second compound 10 µM, first compound 0.316 µM
[34] = second compound 10 µM, first compound 1 µM
[35] = second compound 10 µM, first compound 3.16 µM
[36] = second compound 10 µM, first compound 10 µM
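Further: spheroids exposed to the agents for one week.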
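Wherever viability, T/C is given: 100% = DMSO vehicle control wells.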

Nc1ccn(C2OC(CO)C(O)C2(F)F)c(=O)n1 (stereo unspecified) + COC1C(OC(N)=O)C(O)C(Oc2ccc3c(O)c(NC(=O)c4ccc(O)c(CC=C(C)C)c4)c(=O)oc3c2C)OC1(C)C
inactive: viability, T/C [1] 10.3% | viability, T/C [7] 12.4% | viability, T/C [8] 12.8% | viability, T/C [9] 10.4% | viability, T/C [13] 11.4% | viability, T/C [14] 11.6% | viability, T/C [15] 11.5% | viability, T/C [16] 8.83% | viability, T/C [17] 10.4% | viability, T/C [18] 9.46% | viability, T/C [19] 11.9% | viability, T/C [25] 12.1% | viability, T/C [26] 8.92%
> 7.50: pIC50 (second compound 0.0316 µM) | pIC50 (second compound 0.1 µM) | pIC50 (second compound 0.316 µM) | pIC50 (second compound 1 µM) | pIC50 (second compound 3.16 µM) | pIC50 (second compound 10 µM)
active: viability, T/C [2] 10.7% | viability, T/C [3] 10.7% | viability, T/C [4] 10.6% | viability, T/C [5] 8.5% | viability, T/C [6] 8.9% | viability, T/C [10] 9.28% | viability, T/C [11] 9% | viability, T/C [12] 8.97% | viability, T/C [20] 8.68% | viability, T/C [21] 9.63% | viability, T/C [22] 10.4% | viability, T/C [23] 7.97% | viability, T/C [24] 9.31% | viability, T/C [27] 10.3% | viability, T/C [28] 10.4% | viability, T/C [29] 12.1% | viability, T/C [30] 8.3% | viability, T/C [31] 8.46% | viability, T/C [32] 10.1% | viability, T/C [33] 9.42% | viability, T/C [34] 8.26% | viability, T/C [35] 8.87% | viability, T/C [36] 8.43%

O=C(c1cc(Cc2n[nH]c(=O)c3ccccc23)ccc1F)N1CCN(C(=O)C2CC2)CC1 + COC1C(OC(N)=O)C(O)C(Oc2ccc3c(O)c(NC(=O)c4ccc(O)c(CC=C(C)C)c4)c(=O)oc3c2C)OC1(C)C
< 5.00: pIC50 (second compound 0.0316 µM) | pIC50 (second compound 0.1 µM) | pIC50 (second compound 0.316 µM) | pIC50 (second compound 1 µM) | pIC50 (second compound 3.16 µM) | pIC50 (second compound 10 µM)
inactive: viability, T/C [1] 110% | viability, T/C [2] 98% | viability, T/C [3] 101% | viability, T/C [4] 102% | viability, T/C [5] 103% | viability, T/C [6] 86.8% | viability, T/C [7] 115% | viability, T/C [8] 95% | viability, T/C [9] 106% | viability, T/C [10] 104% | viability, T/C [11] 89.8% | viability, T/C [12] 98.5% | viability, T/C [13] 94.6% | viability, T/C [14] 107% | viability, T/C [15] 82.9% | viability, T/C [16] 83.2% | viability, T/C [17] 93.5% | viability, T/C [18] 97.6% | viability, T/C [19] 95.2% | viability, T/C [20] 96.7% | viability, T/C [21] 86.4% | viability, T/C [22] 98% | viability, T/C [23] 98.1% | viability, T/C [24] 90.2% | viability, T/C [25] 90% | viability, T/C [26] 95.7% | viability, T/C [27] 90.6% | viability, T/C [28] 87% | viability, T/C [29] 95.7% | viability, T/C [30] 85.8% | viability, T/C [31] 88.3% | viability, T/C [32] 84% | viability, T/C [33] 87.8% | viability, T/C [34] 68.5% | viability, T/C [35] 87.5% | viability, T/C [36] 68.5%

O=c1[nH]cc(F)c(=O)[nH]1 + COC1C(OC(N)=O)C(O)C(Oc2ccc3c(O)c(NC(=O)c4ccc(O)c(CC=C(C)C)c4)c(=O)oc3c2C)OC1(C)C
5.65: pIC50 (second compound 1 µM)
inactive: viability, T/C [1] 109% | viability, T/C [2] 100% | viability, T/C [3] 108% | viability, T/C [4] 108% | viability, T/C [5] 36.1% | viability, T/C [6] 16% | viability, T/C [7] 105% | viability, T/C [8] 107% | viability, T/C [9] 95.2% | viability, T/C [10] 99.6% | viability, T/C [11] 30.7% | viability, T/C [12] 14.9% | viability, T/C [13] 105% | viability, T/C [14] 94.9% | viability, T/C [15] 105% | viability, T/C [16] 87.9% | viability, T/C [17] 30.8% | viability, T/C [18] 13.1% | viability, T/C [19] 108% | viability, T/C [20] 98.9% | viability, T/C [21] 106% | viability, T/C [22] 107% | viability, T/C [23] 26.9% | viability, T/C [24] 13.1% | viability, T/C [25] 91.3% | viability, T/C [26] 96.7% | viability, T/C [27] 108% | viability, T/C [28] 88.2% | viability, T/C [29] 28.2% | viability, T/C [30] 13.8% | viability, T/C [31] 94.5% | viability, T/C [32] 91.9% | viability, T/C [33] 86% | viability, T/C [34] 83.7% | viability, T/C [35] 31.6% | viability, T/C [36] 18.1%
5.68: pIC50 (second compound 3.16 µM) | pIC50 (second compound 10 µM)
5.64: pIC50 (second compound 0.1 µM)
5.60: pIC50 (second compound 0.0316 µM)
5.67: pIC50 (second compound 0.316 µM)

— PubChem BioAssay AID1963830 (Molecular Pharmacology Branch, DTP, NCI, 2024)
